Measurements published in patent US20040039199A1, “Oxabispidine compound useful in the treatment of cardiac arrhythmias” (priority 2000, published 2004).

System: Anaesthetised Guinea Pigs
Assay: Test A: Primary electrophysiological effects in anaesthetised guinea pigs
Type: in vivo, guinea pig
Details: index of class III electrophysiological potency; MAP duration at 75 percent repolarization during pacing; intravenous infusion, cumulative doses; derived from mean dose-response curve
Procedure: Primary Electrophysiological Effects In Anaesthetised Guinea Pigs
Guinea pigs weighing between 660 and 1100 g were used. The animals were housed for at least one week before the experiment and had free access to food and tap water during that period.
Anaesthesia was induced by an intraperitoneal injection of pentobarbital (40 to 50 mg/kg) and catheters were introduced into one carotid artery (for blood pressure recording and blood sampling) and into one jugular vein (for drug infusions). Needle electrodes were placed on the limbs for recording of ECGs (lead II). A thermistor was placed in the rectum and the animal was placed on a heating pad, set to a rectal temperature of between 37.5 and 38.5° C. […]
The left ventricular epicardium was exposed by a left-sided thoracotomy, and a custom-designed suction electrode for recording of the monophasic action potential (MAP) was applied to the left ventricular free wall. The electrode was kept in position as long as an acceptable signal could be recorded, otherwise it was moved to a new position. […]
The blood pressure, the MAP signal and the lead II ECG were recorded on a Mingograph ink-jet recorder (Siemens-Elema, Sweden). […] The signals were processed using a custom-made program developed for acquisition and analysis of physiological signals measured in experimental animals (see Axenborg and Hirsch, Comput. Methods Programs Biomed. 41, 55 (1993)). […]

Structure (SMILES): CC(C)(C)C(=O)CN1CC2CN(CCCNc3ccc(C#N)cc3)CC(C1)O2.O=S(=O)(O)c1ccccc1 [Compound A, 4-({3-[7-(3,3-dimethyl-2-oxobutyl)-9-oxa-3,7-diazabicyclo[3.3.1]non-3-yl]propyl}amino)benzonitrile, benzenesulfonic acid salt]
- D10 (cumulative dose prolonging the MAP duration by 10% from the baseline): 6.7
